According to patent publication US8329645B2, “Polymyxin derivatives and uses thereof” (priority 2008, dated 2012):

Columns and labels:
[1] = tested on: E. coli (ATCC25922 and IH3080), K. pneumoniae ATCC13883, and E. cloacae ATCC23355; test: E-test sensitization by NAB7061, range over the tested strains; type: cell-based; conditions: four tested strains
Experimental: (§1) MICs were determined by using E-strips (Biodisk Ltd., Solna, Sweden) according to the manufacturer's instructions.

E. coli ATCC25922 = conditions: E. coli ATCC25922
Experimental: as §1
(§2) The strains originated from ATCC (11 strains), CCUG (11 strains), and NCTC (The National Collection of Type Cultures, Colindale, U.K.; 2 strains). Eight strains (the F-strains) were purchased from Mobidiag Ltd., Helsinki, Finland.

K. pneumoniae ATCC13883 = conditions: K. pneumoniae ATCC13883
Experimental: as §1, §2

E. cloacae ATCC23355 = test: E-test MIC with or without NAB7061 (4 μg/ml), Mueller-Hinton agar; type: cell-based, Enterobacter cloacae
Experimental: as §1, §2

E. coli IH3080 = test: as above; type: cell-based, Escherichia coli
Experimental: as §1, §2

A. baumannii F264 = test: E-test MIC of antibiotics on Mueller Hinton agar containing increasing concentrations of NAB739; type: cell-based, Acinetobacter baumannii
P. aeruginosa ATCC 27853 = test: as above; type: cell-based, Pseudomonas aeruginosa
A. baumannii ATCC19606 = test: as above; type: cell-based, Acinetobacter baumannii
[2] = tested on: both Acinetobacter strains (ATCC 19606 and F264); test: E-test sensitization by NAB739, both strains; type: cell-based, Acinetobacter baumannii

Row | Compound | Sensitization factor to antibiotic at 4 μg/ml of NAB7061, range over the tested strains [1] | Sensitization factor to antibiotic (MIC without / with 4 μg/ml of NAB 7061) (E. coli ATCC25922) | Sensitization factor to antibiotic (MIC without / with 4 μg/ml of NAB 7061) (K. pneumoniae ATCC13883) | Sensitization factor to antibiotic (MIC without / with 4 μg/ml of NAB 7061) (E. cloacae ATCC23355) | Sensitization factor to antibiotic (MIC without / with 4 μg/ml of NAB 7061) (E. coli IH3080) | MIC of antibiotic in the presence of NAB739 (A. baumannii F264; NAB 739 0 μg/ml) [µg/mL] | MIC of antibiotic in the presence of NAB739 (A. baumannii F264; NAB 739 0.5 μg/ml) [µg/mL] | MIC of antibiotic in the presence of NAB739 (A. baumannii F264; NAB 739 1 μg/ml) [µg/mL] | MIC of antibiotic in the presence of NAB739 (P. aeruginosa ATCC 27853; NAB 739 0 μg/ml) [µg/mL] | MIC of antibiotic in the presence of NAB739 (P. aeruginosa ATCC 27853; NAB 739 0.5 μg/ml) [µg/mL] | MIC of antibiotic in the presence of NAB739 (P. aeruginosa ATCC 27853; NAB 739 1 μg/ml) [µg/mL] | MIC of antibiotic in the presence of NAB739 (P. aeruginosa ATCC 27853; NAB 739 2 μg/ml) [µg/mL] | MIC of antibiotic in the presence of NAB739 (P. aeruginosa ATCC 27853; NAB 739 […]) [µg/mL] | MIC of antibiotic in the presence of NAB739 (A. baumannii ATCC19606; NAB 739 0 μg/ml) [µg/mL] | MIC of antibiotic in the presence of NAB739 (A. baumannii ATCC19606; NAB 739 0.5 μg/ml) [µg/mL] | MIC of antibiotic in the presence of NAB739 (A. baumannii ATCC19606; NAB 739 1 μg/ml) [µg/mL] | sensitization factors to antibiotic at NAB739 0.5 μg/ml [2]
1 | C/C(=C\C(=O)OCCCCCCCCC(=O)O)C[C@@H]1OC[C@H](C[C@@H]2O[C@H]2[C@@H](C)[C@H](C)O)[C@@H](O)[C@H]1O [Mupirocin] | 24-512 | 64-170 | 24-32 | 250-512 | 64-85 | – | – | – | – | – | – | – | – | – | – | – | –
2 | CC(=O)O[C@H]1C[C@@]2(C)[C@@H](C[C@@H](O)[C@H]3[C@@]4(C)CC[C@@H](O)[C@@H](C)[C@@H]4CC[C@@]32C)/C1=C(\CCC=C(C)C)C(=O)O [Fusidic acid] | – | >43 | >4 | >8 | >43 | >256 | 3 | 1 | >256 | >256 | >256 | 192 | >256 | >256 | 4 | 1 | 64-85
3 | CC[C@H]1OC(=O)[C@H](C)[C@@H](O[C@H]2C[C@@](C)(OC)[C@@H](O)[C@H](C)O2)[C@H](C)[C@@H](O[C@@H]2O[C@H](C)C[C@H](N(C)C)[C@H]2O)[C@](C)(O)C[C@@H](C)CN(C)[C@H](C)[C@@H](O)[C@]1(C)O [Azithromycin] | 31-94 | 24-64 | 31-43 | 32 | 31-94 | – | – | – | – | – | – | – | – | – | – | – | –
4 | CN[C@H](CC(C)C)C(=O)N[C@H]1C(=O)N[C@@H](CC(N)=O)C(=O)N[C@H]2C(=O)N[C@H]3C(=O)N[C@H](C(=O)N[C@H](C(=O)O)c4cc(O)cc(O)c4-c4cc3ccc4O)[C@H](O)c3ccc(c(Cl)c3)Oc3cc2cc(c3O[C@@H]2O[C@H](CO)[C@@H](O)[C@H](O)[C@H]2O[C@H]2C[C@](C)(N)[C@H](O)[C@H](C)O2)Oc2ccc(cc2Cl)[C@H]1O [Vancomycin] | – | 5 | 1 | 32 | 2.5 | >256 | 3 | 1 | >256 | >256 | >256 | >256 | >256 | >256 | 3 | 1 | 85
